Measurements published in PubChem BioAssay (NCI).
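Five concentrations, 48 hours, 96-well plates. TGI denotes the concentration required for complete inhibition of growth.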

How the values were obtained:
Experiment in all cases: DTP human tumour cell line panel, 48 h
U251 CNS = tested on: U251 CNS
SK-MEL-28 melanoma = tested on: SK-MEL-28 melanoma
ACHN renal = tested on: ACHN renal
SK-OV-3 ovarian = tested on: SK-OV-3 ovarian
MDA-MB-435 = tested on: MDA-MB-435
CAKI-1 renal = tested on: CAKI-1 renal
LOX IMVI melanoma = tested on: LOX IMVI melanoma
SF-295 CNS = tested on: SF-295 CNS
MCF7 breast = tested on: MCF7 breast
KM20L2 colon = tested on: KM20L2 colon

With `C=C(C)[C@@]1(O)O[C@H]2C[C@@]3(C)OC(=CC3=O)/C(C)=C\[C@@H]3OC(=O)[C@@]1(C)[C@H]32` the TGI (U251 CNS) was 33.6 µM, the TGI (SK-MEL-28 melanoma) was 30.4 µM and the TGI (ACHN renal) was > 77.1 µM. The TGI (SK-OV-3 ovarian) was > 100 µM, the TGI (MDA-MB-435) was > 100 µM and the TGI (CAKI-1 renal) was 42.9 µM. It also gave a TGI (LOX IMVI melanoma) of 29.2 µM, a TGI (SF-295 CNS) of 66.9 µM and a TGI (MCF7 breast) of 29.1 µM.

`O=C1c2ccccc2C2CNC1(O)c1ccccc12` (stereo unspecified) was tested, and the TGI (U251 CNS) was > 100 µM, the TGI (SK-MEL-28 melanoma) was > 100 µM and the TGI (ACHN renal) was > 100 µM. For the same molecule, the TGI (SK-OV-3 ovarian) was > 100 µM, the TGI (MDA-MB-435) was > 100 µM and the TGI (CAKI-1 renal) was > 100 µM. The TGI (LOX IMVI melanoma) was > 100 µM, the TGI (SF-295 CNS) was > 100 µM and the TGI (MCF7 breast) was > 100 µM.

For `O=C1Oc2ccccc2C(=O)/C1=C/N1C(=O)N/C(=C\c2ccccc2O)C1=O`, the TGI (U251 CNS) was > 100 µM, the TGI (SK-MEL-28 melanoma) was > 100 µM and the TGI (ACHN renal) was > 100 µM. The TGI (SK-OV-3 ovarian) was > 100 µM, the TGI (MDA-MB-435) was > 100 µM and the TGI (CAKI-1 renal) was > 100 µM. For the same molecule, the TGI (LOX IMVI melanoma) was > 100 µM, the TGI (SF-295 CNS) was > 100 µM and the TGI (MCF7 breast) was > 100 µM.

For `S=c1sc2c(Cl)ncnc2n1-c1ccccc1`, the TGI (U251 CNS) was 29.5 µM, the TGI (KM20L2 colon) was 34.2 µM and the TGI (SK-MEL-28 melanoma) was 23.6 µM. The TGI (ACHN renal) was 30 µM, the TGI (SK-OV-3 ovarian) was 34.3 µM and the TGI (CAKI-1 renal) was 13.8 µM. It also gave a TGI (LOX IMVI melanoma) of 16.6 µM and a TGI (SF-295 CNS) of 25.5 µM.

In the case of `Cc1[nH]c2ncn(/N=C/c3ccccc3O)c(=N)c2c1Cc1ccccc1`, the TGI (U251 CNS) is reported as 41.2 µM, the TGI (SK-MEL-28 melanoma) is reported as > 100 µM and the TGI (ACHN renal) is reported as > 100 µM. The TGI (SK-OV-3 ovarian) was > 100 µM, the TGI (MDA-MB-435) was 48.8 µM and the TGI (CAKI-1 renal) was > 100 µM. For the same molecule, the TGI (LOX IMVI melanoma) was > 100 µM, the TGI (SF-295 CNS) was > 100 µM and the TGI (MCF7 breast) was > 100 µM.

In the case of `O=c1cc(CNC2CCCC2)[nH]c(=O)[nH]1`, the TGI (U251 CNS) is reported as > 100 µM, the TGI (SK-MEL-28 melanoma) is reported as > 100 µM and the TGI (ACHN renal) is reported as > 100 µM. For the same molecule, the TGI (SK-OV-3 ovarian) was > 100 µM, the TGI (MDA-MB-435) was > 100 µM and the TGI (CAKI-1 renal) was > 100 µM. For the same molecule, the TGI (LOX IMVI melanoma) was > 100 µM, the TGI (SF-295 CNS) was > 100 µM and the TGI (MCF7 breast) was > 100 µM.

In the case of `O=c1[nH]c(=O)n(C2CC(O)C(CO)O2)cc1I` (stereo unspecified), the TGI (U251 CNS) is reported as > 100 µM, the TGI (SK-MEL-28 melanoma) is reported as > 100 µM and the TGI (ACHN renal) is reported as > 100 µM. For the same molecule, the TGI (SK-OV-3 ovarian) was > 100 µM, the TGI (MDA-MB-435) was > 100 µM and the TGI (CAKI-1 renal) was > 100 µM. For the same molecule, the TGI (LOX IMVI melanoma) was > 100 µM, the TGI (SF-295 CNS) was > 100 µM and the TGI (MCF7 breast) was > 100 µM.

With `COc1c2cc([N+](=O)[O-])cc1CNC(=O)CN1CCOCCOCCN(CCOCCOCC1)CC(=O)NC2` the TGI (U251 CNS) was > 100 µM, the TGI (SK-MEL-28 melanoma) was > 100 µM and the TGI (ACHN renal) was > 100 µM. The TGI (SK-OV-3 ovarian) was > 100 µM, the TGI (MDA-MB-435) was > 100 µM and the TGI (CAKI-1 renal) was > 100 µM. The TGI (LOX IMVI melanoma) was > 100 µM, the TGI (SF-295 CNS) was > 100 µM and the TGI (MCF7 breast) was > 100 µM.

For `O=S(=O)(Oc1ccc2oc3ccccc3c2c1-c1c(OS(=O)(=O)C(F)(F)F)ccc2oc3ccccc3c12)C(F)(F)F`, the TGI (U251 CNS) was > 100 µM, the TGI (SK-MEL-28 melanoma) was > 100 µM and the TGI (ACHN renal) was > 100 µM. The TGI (SK-OV-3 ovarian) was > 100 µM, the TGI (MDA-MB-435) was > 100 µM and the TGI (CAKI-1 renal) was > 100 µM. The TGI (LOX IMVI melanoma) was > 100 µM, the TGI (SF-295 CNS) was > 100 µM and the TGI (MCF7 breast) was > 100 µM.

In the case of `C=C(C)C(=O)CC[C@@H](C)[C@H]1[C@@H](OC2OC(CO)C(O)C(O)C2O)C[C@@]2(C)[C@@H]3C[C@H](O)C4C(C)(C)[C@@H](OC5OC(CO)C(O)C(O)C5O)CC[C@@]45C[C@@]35CC[C@]12C` (stereo partly specified), the TGI (U251 CNS) is reported as > 100 µM, the TGI (SK-MEL-28 melanoma) is reported as > 100 µM and the TGI (ACHN renal) is reported as > 100 µM. For the same molecule, the TGI (SK-OV-3 ovarian) was > 100 µM, the TGI (MDA-MB-435) was > 100 µM and the TGI (CAKI-1 renal) was > 100 µM. For the same molecule, the TGI (LOX IMVI melanoma) was > 100 µM, the TGI (SF-295 CNS) was > 100 µM and the TGI (MCF7 breast) was > 100 µM.

For `C=C1C(=O)OC2/C=C(\C)C(OC(C)=O)C3OC3C(C)(O)CC(OC(=O)/C(C)=C/C)C12` (stereo unspecified), the TGI (U251 CNS) was 24.5 µM, the TGI (KM20L2 colon) was 15.2 µM and the TGI (SK-MEL-28 melanoma) was 16.2 µM. It also gave a TGI (ACHN renal) of 31.7 µM, a TGI (SK-OV-3 ovarian) of 34.5 µM and a TGI (CAKI-1 renal) of 5.94 µM. For the same molecule, the TGI (LOX IMVI melanoma) was 30.4 µM and the TGI (SF-295 CNS) was 42.4 µM.

In the case of `Nc1nc(Cl)cc(NCC2(O)CC(CO)C2)n1` (stereo unspecified), the TGI (U251 CNS) is reported as > 100 µM, the TGI (SK-MEL-28 melanoma) is reported as > 100 µM and the TGI (ACHN renal) is reported as > 100 µM. For the same molecule, the TGI (SK-OV-3 ovarian) was > 100 µM, the TGI (MDA-MB-435) was > 100 µM and the TGI (CAKI-1 renal) was > 100 µM. For the same molecule, the TGI (LOX IMVI melanoma) was > 100 µM, the TGI (SF-295 CNS) was > 100 µM and the TGI (MCF7 breast) was > 100 µM.

`CN(C)c1nc2sc3c(c2c(=O)o1)CCCC3` was tested, and the TGI (U251 CNS) was > 100 µM, the TGI (SK-MEL-28 melanoma) was > 100 µM and the TGI (ACHN renal) was > 100 µM. The TGI (SK-OV-3 ovarian) was > 100 µM, the TGI (MDA-MB-435) was > 100 µM and the TGI (CAKI-1 renal) was > 100 µM. For the same molecule, the TGI (LOX IMVI melanoma) was > 100 µM, the TGI (SF-295 CNS) was > 100 µM and the TGI (MCF7 breast) was > 100 µM.

For `COc1ccc(Cn2c(C)nc3c2C(=O)c2ccccc2C3=O)cc1`, the TGI (U251 CNS) was > 75 µM, the TGI (KM20L2 colon) was > 75 µM and the TGI (SK-MEL-28 melanoma) was > 75 µM. The TGI (ACHN renal) was 48.9 µM, the TGI (SK-OV-3 ovarian) was > 75 µM and the TGI (LOX IMVI melanoma) was 11.2 µM. It also gave a TGI (SF-295 CNS) of 58.2 µM.

For `O=C1C=CC2CCC1C2` (stereo unspecified), the TGI (U251 CNS) was > 100 µM, the TGI (SK-MEL-28 melanoma) was 89.9 µM and the TGI (ACHN renal) was > 100 µM. The TGI (SK-OV-3 ovarian) was 72.4 µM, the TGI (MDA-MB-435) was 61.5 µM and the TGI (CAKI-1 renal) was > 100 µM. For the same molecule, the TGI (LOX IMVI melanoma) was > 100 µM, the TGI (SF-295 CNS) was > 100 µM and the TGI (MCF7 breast) was > 100 µM.

For `Cc1ccc(C)n1-c1ccccc1C1SCCCS1`, the TGI (U251 CNS) was > 100 µM, the TGI (SK-MEL-28 melanoma) was > 100 µM and the TGI (ACHN renal) was > 100 µM. For the same molecule, the TGI (SK-OV-3 ovarian) was > 100 µM, the TGI (MDA-MB-435) was > 100 µM and the TGI (CAKI-1 renal) was > 100 µM. For the same molecule, the TGI (LOX IMVI melanoma) was > 100 µM, the TGI (SF-295 CNS) was > 100 µM and the TGI (MCF7 breast) was > 100 µM.

`COC(=O)c1c2c(cc3c1CC1(Cc4ccccc4C1=O)C3)CCC2` (stereo unspecified) was tested, and the TGI (U251 CNS) was > 100 µM, the TGI (SK-MEL-28 melanoma) was > 100 µM and the TGI (ACHN renal) was > 100 µM. The TGI (SK-OV-3 ovarian) was > 100 µM, the TGI (MDA-MB-435) was 40.3 µM and the TGI (CAKI-1 renal) was > 100 µM. For the same molecule, the TGI (LOX IMVI melanoma) was > 100 µM, the TGI (SF-295 CNS) was > 100 µM and the TGI (MCF7 breast) was > 100 µM.

`CC1=NN(C(=O)CSc2nnc(SCC(=O)N3N=C(C)CC3(O)c3ccccc3)s2)C(O)(c2ccccc2)C1` (stereo unspecified) was tested, and the TGI (U251 CNS) was > 100 µM, the TGI (SK-MEL-28 melanoma) was > 100 µM and the TGI (ACHN renal) was > 100 µM. For the same molecule, the TGI (SK-OV-3 ovarian) was > 100 µM, the TGI (MDA-MB-435) was > 100 µM and the TGI (CAKI-1 renal) was > 100 µM. For the same molecule, the TGI (LOX IMVI melanoma) was > 100 µM, the TGI (SF-295 CNS) was > 100 µM and the TGI (MCF7 breast) was > 100 µM.

`COC(=O)C(=O)C(C(=O)Nc1cccc(C)c1C)C1Sc2ccccc2NC1=O` (stereo unspecified) was tested, and the TGI (U251 CNS) was > 25 µM, the TGI (KM20L2 colon) was > 25 µM and the TGI (SK-MEL-28 melanoma) was > 25 µM. For the same molecule, the TGI (ACHN renal) was > 25 µM, the TGI (SK-OV-3 ovarian) was > 25 µM and the TGI (CAKI-1 renal) was > 25 µM. For the same molecule, the TGI (LOX IMVI melanoma) was > 25 µM and the TGI (SF-295 CNS) was > 25 µM.
